The nature of data set [1]: in vitro. Further details: species or system primary non-human primate hepatocytes. The conditions noted are these: monkey, primary hepatocytes.
The conditions of data set [2]: liver microsomes. In general terms: Microsomes from liver hold many membrane-bound enzymes, among them those of drug oxidation.
For another data set, the target named is hERG (Homo sapiens, UniProt Q12809). The settings on record: HEK293, 10 µM.
The nature of data set [3]: in vitro. The settings on record: monkey, primary hepatocytes. Further details: species or system primary non-human primate hepatocytes. This is another data set of the same source.
The test system of a further data set is P. berghei. In words: microbe, parasite or virus in culture. The conditions noted are these: Plasmodium berghei, HepG2, read-out: % inhibition.
Another data set concerns the target CYP3A4 (Homo sapiens, UniProt P08684). In words: in vitro CYP3A4 inhibition. In kind it is cell-based.
The conditions of data set [4]: liver microsomes. The source holds these as a separate data set.
Data set [5] deals with T1, PfPKG (Plasmodium falciparum, UniProt Q8I719). In words: in vitro PfPKG kinase inhibition assay. It is filed as biochemical.
The next data set has as its target 2C9 (Homo sapiens, UniProt P11712). Description: biochemical.
In the next data set the target is 2D6 (Homo sapiens, UniProt P10635). Description: biochemical.
Data set [6] addresses T1, PfPKG. In words: in vitro PfPKG kinase inhibition assay. In kind it is biochemical. The conditions noted are these: […] compound.
The target in data set [7] is T1, PfPKG. Description: in vitro PfPKG kinase inhibition assay. It is filed as biochemical. The settings on record: […] compound. This is another data set of the same source.

Molecules are shown by their SMILES. A value given as a limit tells only on which side of the number the result lay.

T1 sequence (Q8I719 whole entry): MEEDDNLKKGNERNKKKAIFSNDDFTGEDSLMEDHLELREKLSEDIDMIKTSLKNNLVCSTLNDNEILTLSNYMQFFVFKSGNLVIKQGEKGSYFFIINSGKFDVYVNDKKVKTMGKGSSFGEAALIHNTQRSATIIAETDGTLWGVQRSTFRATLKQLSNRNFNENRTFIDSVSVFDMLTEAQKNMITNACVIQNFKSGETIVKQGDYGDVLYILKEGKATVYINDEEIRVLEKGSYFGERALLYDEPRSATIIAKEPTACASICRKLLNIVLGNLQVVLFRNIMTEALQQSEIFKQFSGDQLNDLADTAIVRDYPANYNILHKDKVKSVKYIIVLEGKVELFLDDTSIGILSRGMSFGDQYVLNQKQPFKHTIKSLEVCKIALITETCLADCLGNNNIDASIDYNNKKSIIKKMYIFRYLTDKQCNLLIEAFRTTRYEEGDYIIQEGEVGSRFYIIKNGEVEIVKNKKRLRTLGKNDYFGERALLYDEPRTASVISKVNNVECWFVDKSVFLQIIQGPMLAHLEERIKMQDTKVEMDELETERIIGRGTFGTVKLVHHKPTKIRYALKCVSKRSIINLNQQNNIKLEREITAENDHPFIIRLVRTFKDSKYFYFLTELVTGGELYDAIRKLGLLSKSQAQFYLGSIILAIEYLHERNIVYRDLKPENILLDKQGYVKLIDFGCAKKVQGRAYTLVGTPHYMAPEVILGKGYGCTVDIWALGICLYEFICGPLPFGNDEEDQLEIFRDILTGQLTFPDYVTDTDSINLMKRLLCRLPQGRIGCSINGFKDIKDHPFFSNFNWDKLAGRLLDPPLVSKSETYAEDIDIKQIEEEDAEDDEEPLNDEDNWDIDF
hERG, sequence (Q12809 whole entry): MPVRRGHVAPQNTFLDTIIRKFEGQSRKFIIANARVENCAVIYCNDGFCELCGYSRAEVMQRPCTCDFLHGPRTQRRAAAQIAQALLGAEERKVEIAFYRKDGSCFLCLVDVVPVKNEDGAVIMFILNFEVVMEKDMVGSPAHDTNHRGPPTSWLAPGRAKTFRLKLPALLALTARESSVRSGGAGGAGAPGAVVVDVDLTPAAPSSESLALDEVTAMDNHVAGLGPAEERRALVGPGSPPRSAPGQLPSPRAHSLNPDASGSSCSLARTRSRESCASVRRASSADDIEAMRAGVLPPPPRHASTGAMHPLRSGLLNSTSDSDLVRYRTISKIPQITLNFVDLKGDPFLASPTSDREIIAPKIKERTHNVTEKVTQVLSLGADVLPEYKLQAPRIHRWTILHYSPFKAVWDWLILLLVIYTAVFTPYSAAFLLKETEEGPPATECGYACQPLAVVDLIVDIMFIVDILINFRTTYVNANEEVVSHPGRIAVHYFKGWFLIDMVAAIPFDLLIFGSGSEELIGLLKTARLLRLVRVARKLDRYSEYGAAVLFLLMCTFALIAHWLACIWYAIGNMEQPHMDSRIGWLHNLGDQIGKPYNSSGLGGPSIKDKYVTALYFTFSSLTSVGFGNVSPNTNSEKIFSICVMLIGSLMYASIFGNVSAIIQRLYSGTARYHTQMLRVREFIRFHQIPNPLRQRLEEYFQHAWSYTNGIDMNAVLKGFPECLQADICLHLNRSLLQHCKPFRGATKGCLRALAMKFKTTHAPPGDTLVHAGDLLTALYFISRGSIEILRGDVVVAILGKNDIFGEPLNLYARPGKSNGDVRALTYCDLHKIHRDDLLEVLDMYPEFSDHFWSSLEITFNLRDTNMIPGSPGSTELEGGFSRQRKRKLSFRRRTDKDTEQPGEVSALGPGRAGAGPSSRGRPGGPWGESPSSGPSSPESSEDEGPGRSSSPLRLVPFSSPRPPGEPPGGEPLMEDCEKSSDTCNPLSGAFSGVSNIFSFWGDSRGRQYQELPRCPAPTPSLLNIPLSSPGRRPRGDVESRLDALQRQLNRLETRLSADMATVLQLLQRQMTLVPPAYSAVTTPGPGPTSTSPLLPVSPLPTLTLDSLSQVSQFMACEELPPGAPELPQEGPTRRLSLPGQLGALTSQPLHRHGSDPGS
CYP3A4, sequence (P08684 2-503): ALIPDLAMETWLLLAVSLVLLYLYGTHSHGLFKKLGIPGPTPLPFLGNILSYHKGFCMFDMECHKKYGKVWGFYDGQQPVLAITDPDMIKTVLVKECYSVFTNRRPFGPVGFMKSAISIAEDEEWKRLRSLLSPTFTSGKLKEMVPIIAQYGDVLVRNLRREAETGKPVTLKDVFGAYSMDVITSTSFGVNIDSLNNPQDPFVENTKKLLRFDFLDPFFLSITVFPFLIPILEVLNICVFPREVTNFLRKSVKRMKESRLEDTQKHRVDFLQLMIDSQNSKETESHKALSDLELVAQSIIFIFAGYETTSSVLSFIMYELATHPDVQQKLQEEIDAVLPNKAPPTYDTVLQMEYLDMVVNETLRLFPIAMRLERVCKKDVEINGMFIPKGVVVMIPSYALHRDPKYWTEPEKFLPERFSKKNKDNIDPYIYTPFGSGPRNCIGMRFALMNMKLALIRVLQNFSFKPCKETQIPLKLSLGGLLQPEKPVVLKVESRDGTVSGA
2D6, sequence (P10635 whole entry): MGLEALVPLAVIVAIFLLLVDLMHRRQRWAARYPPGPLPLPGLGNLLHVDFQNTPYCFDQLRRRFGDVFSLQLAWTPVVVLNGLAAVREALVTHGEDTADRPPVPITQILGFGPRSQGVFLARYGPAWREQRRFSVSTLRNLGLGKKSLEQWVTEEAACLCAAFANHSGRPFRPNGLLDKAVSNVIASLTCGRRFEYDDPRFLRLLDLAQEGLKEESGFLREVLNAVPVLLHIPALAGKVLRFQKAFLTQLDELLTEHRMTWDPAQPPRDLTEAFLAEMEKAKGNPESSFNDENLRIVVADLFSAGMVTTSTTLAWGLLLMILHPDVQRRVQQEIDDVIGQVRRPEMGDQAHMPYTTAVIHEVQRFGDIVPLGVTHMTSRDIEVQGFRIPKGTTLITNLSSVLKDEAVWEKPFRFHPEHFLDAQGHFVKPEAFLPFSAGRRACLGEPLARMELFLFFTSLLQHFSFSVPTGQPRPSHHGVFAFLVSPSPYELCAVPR
2C9, sequence (P11712 whole entry): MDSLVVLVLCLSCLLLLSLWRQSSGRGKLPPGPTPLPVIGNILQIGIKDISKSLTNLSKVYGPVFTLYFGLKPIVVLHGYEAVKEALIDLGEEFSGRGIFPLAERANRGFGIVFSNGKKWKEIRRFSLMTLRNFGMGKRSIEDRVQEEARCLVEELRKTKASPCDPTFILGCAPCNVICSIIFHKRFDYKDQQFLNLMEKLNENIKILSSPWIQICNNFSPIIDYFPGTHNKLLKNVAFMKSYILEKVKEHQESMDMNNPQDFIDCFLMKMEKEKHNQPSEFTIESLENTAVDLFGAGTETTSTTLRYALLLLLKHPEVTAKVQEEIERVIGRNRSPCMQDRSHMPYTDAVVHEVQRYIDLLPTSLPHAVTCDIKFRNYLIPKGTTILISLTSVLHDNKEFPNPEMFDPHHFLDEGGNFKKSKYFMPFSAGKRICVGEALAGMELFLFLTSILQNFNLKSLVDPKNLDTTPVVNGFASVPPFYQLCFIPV

As a reminder, the inhibition is the share of the control response that was lost under treatment. The term IC50 denotes the concentration needed to halve the response being measured. The low end stands for greater potency, the high end for weaker potency. As for `O=C(c1nccs1)N1CC[C@@H](Nc2nccc(-n3cc(C4CC4)nc3-c3cccc(Cl)c3)n2)C1` [14b], the CC50 at 96 h in “in vitro [1]” and in the data set “in vitro [3]” was over 20000 nM each time. For the same molecule, in data set [2], the “MLM t1/2” value is under 2 min. The “hERG % inh. @ 10 uM” value at hERG is on record as 9%. Moreover, the inhibition at 2 µM in the data set with P. berghei worked out at 94 ± 3%. Also, in the data set on P. berghei, the inhibition at 10 µM turned out to be 93 ± 3%. Also, the IC50 against CYP3A4 is under 300 nM; at PfPKG [5], 60 nM. The “HLM t1/2” value in [4] turned out to be 3.7 min.
With `Cc1cn(-c2ccnc(N[C@@H]3CCN(C(=O)c4nccs4)C3)n2)c(-c2ccccc2)n1` [10a], the CC50 at 96 h in the data set “in vitro [1]” and in “in vitro [3]” was over 20000 nM each time. In data set [2], the “MLM t1/2” value is given as under 2 min. The IC50 was over 10000 nM against 2C9, over 10000 nM on 2D6 and 320 nM at PfPKG [5]. Besides, the inhibition at 2 µM in the data set on P. berghei was found to be 78 ± 20%. Also, the inhibition at 10 µM with P. berghei worked out at 89 ± 7%. Also, in data set [4], the “HLM t1/2” value was under 2 min.
As to `Cc1cn(-c2ccnc(N[C@@H]3CCN(C(=O)c4nccs4)C3)n2)c(-c2ccccc2Cl)n1` [18b], the “% inhib @ 1 uM” value on PfPKG [6] amounted to 47%.
For the molecule `O=C(c1nccs1)N1CC[C@@H](Nc2nccc(-n3cc(C4CC4)nc3-c3ccccc3)n2)C1` [14a], in [2], the “MLM t1/2” value is listed as under 2 min. Moreover, the “hERG % inh. @ 10 uM” value at hERG came to 1%. In addition, the IC50 at CYP3A4 was under 300 nM; against PfPKG [5], 100 nM. For the same molecule, the “HLM t1/2” value in data set [4] is 4.8 min.
With `Cc1cn(-c2ccnc(N[C@H]3CCN(C(=O)c4nccs4)C3)n2)c(-c2ccccc2)n1` [10c], the “% inh @ 1 uM” value on PfPKG [7] is given as 4%.
Still for that read-out and setting: then `Cc1cn(-c2ccnc(NC3CCCN(C(=O)c4nccs4)C3)n2)c(-c2ccccc2)n1` (racemic) [10d], with 4%.
On PfPKG [5], `COc1cccc(-c2nc(C)cn2-c2ccnc(N[C@@H]3CCN(C(=O)c4nccs4)C3)n2)c1` [18a] registered an IC50 of 86 nM.
On the same count and under the same terms, then `Cc1cn(-c2ccnc(N[C@@H]3CCN(C(=O)c4nccs4)C3)n2)c(-c2ccc(Cl)cc2)n1` [18c], with 1160 nM; and `Cc1cn(-c2ccnc(N[C@@H]3CCN(C(=O)c4nccs4)C3)n2)c(-c2cccc(OC(F)(F)F)c2)n1` [18d], with 150 nM.
As for `Cc1cn(-c2ccnc(N[C@@H]3CCN(C(=O)c4ccn(C)n4)C3)n2)c(-c2ccccc2)n1` [10b], at PfPKG [5], the IC50 was found to be 1000 nM.

The values are drawn from publication doi:10.1101/2021.08.24.457553v1 (biorxiv, 2021).
